pIC50: −log10 of the molar value.
Tests used:
p110α/p85 = p110α/p85 (Homo sapiens, UniProt P42336); experiment: Inhibition of isolated enzyme (lipid kinase assay, [γ33P]ATP, TLC); format: biochemical; conditions: recombinant enzyme, 100 μM ATP, 1 hr room temperature, average of two experiments
Method: (§1) Compounds were evaluated for their ability to inhibit Class I PI 3-kinase enzymes p110δ/p85, p110α/p85, and p110β/p85. Reaction mixtures comprising 0.1 μg of a recombinant enzyme, 10 μg of L-α-phosphatidylinositol, and 2× Lipid Kinase Buffer (40 mM Tris-HCl, pH 7.4, 200 mM NaCl, 1 mM EDTA), which contains either DMSO only as a control or the test compound in DMSO (the final DMSO concentration is 1%), were activated by the addition of an ATP mix (5 mM MgCl2, 100 μM ATP, and 0.1 μL [γ^33P]ATP). Reactions were incubated at room temperature for 1 hr, and then stopped by the addition of 1M HCl. The lipids were then extracted using a two step procedure. Firstly, 200 μL of chloroform/methanol (1:1) was added, the biphasic reactions mixed and centrifuged briefly, and the inorganic phase was removed and discarded. Following this, 80 μL of methanol:HCl (1:1) was added and the same procedure followed. The organic phase (70 μL) was then transferred to a clean 1.6 mL tube and the reactions were dried using a Speedvac, with no heating, for […]. The reactions were spotted onto TLC plates (Merck Ltd) and developed for 1 hr in propanol-1:2 M acetic acid (13:7). The TLC plates were then dried at room temperature and quantified using a phosphorimager (StormImager, Amersham). Nine compound concentrations were used for each test compound to determine its IC50 value. Each experiment was performed twice and the average IC50 value is used herein.

p110β/p85 = p110β/p85 (Homo sapiens, UniProt P42338); experiment: as above; format: biochemical; conditions: recombinant enzyme, 100 μM ATP, 1 hr room temperature, average of two experiments
Method: as §1

p110δ/p85 = p110δ/p85 (Homo sapiens, UniProt O00329); experiment: as above; format: biochemical; conditions: recombinant enzyme, 100 μM ATP, 1 hr room temperature, average of two experiments
Method: as §1

NZB5 = experiment: Cellular growth inhibition (3H-thymidine incorporation); format: cell-based; conditions: Homo sapiens, five days incubation, 3H-thymidine over the last 6 hrs, read-out: Cell IC50* NZB5
Method: (§2) The compounds were evaluated against two early passage human cell lines NZB5 and NZOV9 (Marshall et al., Oncol. Res. 2004, 14, 297). The cells were grown in ITS medium (α-modified minimal essential medium supplemented insulin, transferrin, selenite, and 5% fetal bovine serum) and grown on 96-well tissue culture plates under an atmosphere of 5% O2, 5% CO2, and 90% N2. Individual wells contained 500-1,000 cells (depending on the growth rate) in a volume of 150 μL. Compounds were added at 10-fold concentration steps to a maximum of 20 μM and plates were incubated for five days, with ^3H-thymidine being added over the last 6 hrs. Cells were harvested and incorporated radioactivity measured. Duplicate samples were analyzed for each compound dose with multiple control samples. Data were fitted by a least-squares method to an exponential of the form y=y0+ae^−bx, where y is the radioactivity (corrected for background and normalized to 100% of the control), x is the […], and y0, a, and b are variables, and the IC50 value defined as the compound concentration reducing ^3H-thymidine levels by 50%.

NZOV9 = experiment: as above; format: cell-based; conditions: Homo sapiens, five days incubation, 3H-thymidine over the last 6 hrs, read-out: Cell IC50* NZOV9
Method: as §2

p110δ/p85, sequence (O00329 whole entry, species assumed): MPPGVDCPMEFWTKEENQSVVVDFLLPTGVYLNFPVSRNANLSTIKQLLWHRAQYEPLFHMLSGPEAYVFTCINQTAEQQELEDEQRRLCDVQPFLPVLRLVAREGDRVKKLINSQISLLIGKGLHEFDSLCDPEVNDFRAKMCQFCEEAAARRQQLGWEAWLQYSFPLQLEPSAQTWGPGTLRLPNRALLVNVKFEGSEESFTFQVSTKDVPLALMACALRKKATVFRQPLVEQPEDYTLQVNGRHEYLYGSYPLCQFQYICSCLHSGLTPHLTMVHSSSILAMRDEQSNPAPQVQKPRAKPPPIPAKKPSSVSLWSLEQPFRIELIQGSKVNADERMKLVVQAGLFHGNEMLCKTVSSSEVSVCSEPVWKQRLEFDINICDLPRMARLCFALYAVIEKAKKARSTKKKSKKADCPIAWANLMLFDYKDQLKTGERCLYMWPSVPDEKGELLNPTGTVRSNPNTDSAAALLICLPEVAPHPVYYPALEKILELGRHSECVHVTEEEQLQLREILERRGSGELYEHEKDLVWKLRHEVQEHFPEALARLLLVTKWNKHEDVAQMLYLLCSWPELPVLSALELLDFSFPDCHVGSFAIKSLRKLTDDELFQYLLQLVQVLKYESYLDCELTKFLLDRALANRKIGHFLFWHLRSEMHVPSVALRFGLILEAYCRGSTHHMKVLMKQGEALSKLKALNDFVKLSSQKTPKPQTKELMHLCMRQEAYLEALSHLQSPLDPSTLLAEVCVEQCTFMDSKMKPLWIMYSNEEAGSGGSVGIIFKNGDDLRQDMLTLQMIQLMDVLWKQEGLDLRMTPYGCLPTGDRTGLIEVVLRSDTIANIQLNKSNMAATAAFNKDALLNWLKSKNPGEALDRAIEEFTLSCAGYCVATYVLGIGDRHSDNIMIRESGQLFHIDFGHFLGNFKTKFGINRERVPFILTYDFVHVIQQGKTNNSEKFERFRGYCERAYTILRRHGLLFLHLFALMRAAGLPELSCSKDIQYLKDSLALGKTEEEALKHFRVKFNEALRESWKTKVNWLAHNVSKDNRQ
p110δ/p85, sequence (P27986 whole entry partner, species assumed): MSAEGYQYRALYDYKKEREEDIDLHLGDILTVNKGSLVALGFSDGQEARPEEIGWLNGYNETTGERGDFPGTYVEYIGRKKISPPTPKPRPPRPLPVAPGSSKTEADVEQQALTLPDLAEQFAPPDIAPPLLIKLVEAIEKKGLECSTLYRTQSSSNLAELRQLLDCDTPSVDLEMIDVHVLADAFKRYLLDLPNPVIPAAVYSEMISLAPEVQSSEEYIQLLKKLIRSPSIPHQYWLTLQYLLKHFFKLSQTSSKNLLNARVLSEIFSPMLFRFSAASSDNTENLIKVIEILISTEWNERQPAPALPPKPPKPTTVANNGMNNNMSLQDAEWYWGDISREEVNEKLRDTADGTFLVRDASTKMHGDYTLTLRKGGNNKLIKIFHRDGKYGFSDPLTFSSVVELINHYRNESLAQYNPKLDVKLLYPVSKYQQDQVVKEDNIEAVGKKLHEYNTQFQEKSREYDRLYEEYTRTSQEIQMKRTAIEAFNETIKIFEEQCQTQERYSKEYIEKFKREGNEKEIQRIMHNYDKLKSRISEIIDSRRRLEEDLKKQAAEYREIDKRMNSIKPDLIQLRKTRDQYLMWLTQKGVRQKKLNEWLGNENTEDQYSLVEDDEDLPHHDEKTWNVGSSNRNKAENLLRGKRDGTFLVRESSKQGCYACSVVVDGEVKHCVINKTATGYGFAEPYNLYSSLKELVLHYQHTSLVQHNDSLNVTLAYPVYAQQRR
p110β/p85, sequence (P42338 whole entry, species assumed): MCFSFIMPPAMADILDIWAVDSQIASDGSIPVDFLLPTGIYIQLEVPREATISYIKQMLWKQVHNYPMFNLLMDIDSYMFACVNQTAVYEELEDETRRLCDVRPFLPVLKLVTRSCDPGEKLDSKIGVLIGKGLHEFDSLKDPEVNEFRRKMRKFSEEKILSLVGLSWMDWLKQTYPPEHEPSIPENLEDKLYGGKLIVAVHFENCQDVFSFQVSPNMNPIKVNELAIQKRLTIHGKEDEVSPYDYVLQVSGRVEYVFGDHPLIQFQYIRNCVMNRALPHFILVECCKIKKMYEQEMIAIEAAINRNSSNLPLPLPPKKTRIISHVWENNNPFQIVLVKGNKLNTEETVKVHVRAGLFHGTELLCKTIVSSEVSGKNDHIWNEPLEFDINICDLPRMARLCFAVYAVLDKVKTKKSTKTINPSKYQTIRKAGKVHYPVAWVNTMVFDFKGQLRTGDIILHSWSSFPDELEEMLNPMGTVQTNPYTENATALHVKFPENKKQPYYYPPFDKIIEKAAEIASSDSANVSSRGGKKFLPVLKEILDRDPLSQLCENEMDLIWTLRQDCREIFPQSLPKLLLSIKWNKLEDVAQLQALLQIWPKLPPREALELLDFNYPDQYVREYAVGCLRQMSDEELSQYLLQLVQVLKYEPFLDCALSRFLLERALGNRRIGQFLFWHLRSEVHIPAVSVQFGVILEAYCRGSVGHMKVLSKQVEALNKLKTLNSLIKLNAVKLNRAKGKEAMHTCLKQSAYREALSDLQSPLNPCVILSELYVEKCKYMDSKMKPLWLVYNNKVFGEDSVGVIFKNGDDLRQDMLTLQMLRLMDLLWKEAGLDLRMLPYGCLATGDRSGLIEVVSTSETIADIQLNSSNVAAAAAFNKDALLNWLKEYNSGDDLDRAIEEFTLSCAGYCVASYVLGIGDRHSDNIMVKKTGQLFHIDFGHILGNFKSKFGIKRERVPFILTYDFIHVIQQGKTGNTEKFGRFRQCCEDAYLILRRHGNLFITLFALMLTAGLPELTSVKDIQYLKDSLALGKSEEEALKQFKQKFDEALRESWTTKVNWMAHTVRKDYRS
p110β/p85, sequence (P27986 whole entry partner, species assumed): as the sequence (P27986 whole entry partner, species assumed) above
p110α/p85, sequence (P42336 whole entry): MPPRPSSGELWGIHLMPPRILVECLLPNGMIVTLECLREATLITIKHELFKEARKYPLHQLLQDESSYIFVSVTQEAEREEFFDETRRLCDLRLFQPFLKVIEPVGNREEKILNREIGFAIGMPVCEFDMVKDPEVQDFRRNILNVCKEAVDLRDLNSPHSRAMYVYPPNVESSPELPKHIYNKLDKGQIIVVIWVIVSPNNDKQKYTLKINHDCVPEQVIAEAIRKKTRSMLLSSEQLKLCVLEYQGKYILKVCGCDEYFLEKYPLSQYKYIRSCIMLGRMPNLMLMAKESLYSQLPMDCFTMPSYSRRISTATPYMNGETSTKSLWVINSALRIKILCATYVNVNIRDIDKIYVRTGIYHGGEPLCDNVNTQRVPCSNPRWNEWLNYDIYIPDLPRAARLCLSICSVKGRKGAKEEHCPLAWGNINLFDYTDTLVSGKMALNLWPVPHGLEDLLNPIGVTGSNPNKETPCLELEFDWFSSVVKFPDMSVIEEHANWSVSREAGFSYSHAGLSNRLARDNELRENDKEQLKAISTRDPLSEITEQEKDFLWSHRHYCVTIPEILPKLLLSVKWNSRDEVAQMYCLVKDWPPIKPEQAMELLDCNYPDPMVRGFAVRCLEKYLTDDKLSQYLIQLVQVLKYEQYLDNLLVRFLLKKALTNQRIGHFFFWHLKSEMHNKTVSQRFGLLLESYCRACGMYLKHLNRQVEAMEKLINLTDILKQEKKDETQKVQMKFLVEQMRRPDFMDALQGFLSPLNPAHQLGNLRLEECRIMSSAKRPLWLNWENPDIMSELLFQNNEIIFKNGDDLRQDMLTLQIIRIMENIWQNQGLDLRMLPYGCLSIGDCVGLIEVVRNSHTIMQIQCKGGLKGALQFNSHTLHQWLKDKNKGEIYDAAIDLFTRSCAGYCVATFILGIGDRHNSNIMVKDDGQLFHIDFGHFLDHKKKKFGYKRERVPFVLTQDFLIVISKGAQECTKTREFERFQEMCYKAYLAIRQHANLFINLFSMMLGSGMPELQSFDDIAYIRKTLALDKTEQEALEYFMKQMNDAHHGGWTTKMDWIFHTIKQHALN
p110α/p85, sequence (P27986 whole entry partner): as the sequence (P27986 whole entry partner, species assumed) above

SMILES | pIC50 (p110α/p85) | pIC50 (p110β/p85) | pIC50 (p110δ/p85) | pIC50 (NZB5) | pIC50 (NZOV9) | melting point [°C]
COc1cccc2c1nc(C(F)F)n2-c1nc(N2CCOCC2)nc(N(C)c2cccnc2)n1 [Example 3, 4-[2-(difluoromethyl)-4-methoxy-1H-benzimidazol-1-yl]-N-methyl-6-(4-morpholinyl)-N-(3-pyridinyl)-1,3,5-triazin-2-amine] | > 7.00 | > 7.00 | > 7.00 | 6.00 to 7.00 | > 7.00 | 200 to 201
CSc1nc2ccccc2n1-c1nc(Nc2cccnc2)nc(N2CCOCC2)n1 [Example 4, 4-[2-(methylsulfanyl)-1H-benzimidazol-1-yl]-6-(4-morpholinyl)-N-(3-pyridinyl)-1,3,5-triazin-2-amine] | 5.00 to 6.00 | 5.00 to 6.00 | 6.00 to 7.00 | > 7.00 | 6.00 to 7.00 | 240 to 241
CS(=O)(=O)c1nc2ccccc2n1-c1nc(Nc2cccnc2)nc(N2CCOCC2)n1 [Example 5, 4-[2-(methylsulfonyl)-1H-benzimidazol-1-yl]-6-(4-morpholinyl)-N-(3-pyridinyl)-1,3,5-triazin-2-amine] | 6.00 to 7.00 | 6.00 to 7.00 | > 7.00 | 6.00 to 7.00 | 6.00 to 7.00 | 208 to 211
FC(F)c1nc2ccccc2n1-c1nc(Nc2ccccc2)nc(N2CCOCC2)n1 [Example 6, 4-[2-(difluoromethyl)-1H-benzimidazol-1-yl]-6-(4-morpholinyl)-N-phenyl-1,3,5-triazin-2-amine] | 6.00 to 7.00 | 6.00 to 7.00 | > 7.00 | 6.00 to 7.00 | 6.00 to 7.00 | 171 to 174
CN(c1ccccc1)c1nc(N2CCOCC2)nc(-n2c(C(F)F)nc3ccccc32)n1 [Example 7, 4-[2-(difluoromethyl)-1H-benzimidazol-1-yl]-N-methyl-6-(4-morpholinyl)-N-phenyl-1,3,5-triazin-2-amine] | 6.00 to 7.00 | 6.00 to 7.00 | 6.00 to 7.00 | 6.00 to 7.00 | 6.00 to 7.00 | 160 to 162
FC(F)c1nc2ccccc2n1-c1nc(NCc2ccccc2)nc(N2CCOCC2)n1 [Example 8, N-benzyl-4-[2-(difluoromethyl)-1H-benzimidazol-1-yl]-6-(4-morpholinyl)-1,3,5-triazin-2-amine] | 6.00 to 7.00 | > 7.00 | > 7.00 | 6.00 to 7.00 | 6.00 to 7.00 | 185 to 188
FC(F)c1nc2ccccc2n1-c1nc(Oc2ccccc2)nc(N2CCOCC2)n1 [Example 10, 2-(difluoromethyl)-1-[4-(4-morpholinyl)-6-phenoxy-1,3,5-triazin-2-yl]-1H-benzimidazole] | < 5.00 | < 5.00 | 5.00 to 6.00 | < 5.00 | 5.00 to 6.00 | 228 to 231
FC(F)c1nc2ccccc2n1-c1nc(Sc2ccccc2)nc(N2CCOCC2)n1 [Example 11, 2-(difluoromethyl)-1-[4-(4-morpholinyl)-6-(phenylsulfanyl)-1,3,5-triazin-2-yl]-1H-benzimidazole] | < 5.00 | < 5.00 | 5.00 to 6.00 | < 5.00 | < 5.00 | 245 to 248
O=S(=O)(c1ccccc1)c1nc(N2CCOCC2)nc(-n2c(C(F)F)nc3ccccc32)n1 [Example 12, 2-(difluoromethyl)-1-[4-(4-morpholinyl)-6-(phenylsulfonyl)-1,3,5-triazin-2-yl]-1H-benzimidazole] | 5.00 to 6.00 | 5.00 to 6.00 | 5.00 to 6.00 | < 5.00 | < 5.00 | 237 to 239
FC(F)c1nc2ccccc2n1-c1nc(NCc2ccccn2)nc(N2CCOCC2)n1 [Example 13, 4-[2-(difluoromethyl)-1H-benzimidazol-1-yl]-6-(4-morpholinyl)-N-(2-pyridinylmethyl)-1,3,5-triazin-2-amine] | > 7.00 | > 7.00 | > 7.00 | 6.00 to 7.00 | 6.00 to 7.00 | 192 to 193
FC(F)c1nc2ccccc2n1-c1nc(NCc2cccnc2)nc(N2CCOCC2)n1 [Example 14, 4-[2-(difluoromethyl)-1H-benzimidazol-1-yl]-6-(4-morpholinyl)-N-(3-pyridinylmethyl)-1,3,5-triazin-2-amine] | 6.00 to 7.00 | 6.00 to 7.00 | > 7.00 | 5.00 to 6.00 | 6.00 to 7.00 | 160 to 161
FC(F)c1nc2ccccc2n1-c1nc(Nc2ccncc2)nc(N2CCOCC2)n1 [Example 17, 4-[2-(difluoromethyl)-1H-benzimidazol-1-yl]-6-(4-morpholinyl)-N-(4-pyridinyl)-1,3,5-triazin-2-amine] | > 7.00 | 6.00 to 7.00 | > 7.00 | > 7.00 | > 7.00 | 222 to 224
FC(F)c1nc2ccccc2n1-c1nc(Nc2cccnn2)nc(N2CCOCC2)n1 [Example 23, 4-[2-(difluoromethyl)-1H-benzimidazol-1-yl]-6-(4-morpholinyl)-N-(3-pyridazinyl)-1,3,5-triazin-2-amine] | > 7.00 | 6.00 to 7.00 | > 7.00 | 6.00 to 7.00 | 6.00 to 7.00 | 271 to 273
Cn1cc(Nc2nc(N3CCOCC3)nc(-n3c(C(F)F)nc4ccccc43)n2)cn1 [Example 25, 4-[2-(difluoromethyl)-1H-benzimidazol-1-yl]-N-(1-methyl-1H-pyrazol-4-yl)-6-(4-morpholinyl)-1,3,5-triazin-2-amine] | > 7.00 | 6.00 to 7.00 | > 7.00 | 6.00 to 7.00 | 6.00 to 7.00 | 225 to 226
COc1ccncc1Nc1nc(N2CCOCC2)nc(-n2c(C(F)F)nc3ccccc32)n1 [Example 26, 4-[2-(difluoromethyl)-1H-benzimidazol-1-yl]-N-(4-methoxy-3-pyridinyl)-6-(4-morpholinyl)-1,3,5-triazin-2-amine] | > 7.00 | 6.00 to 7.00 | > 7.00 | 6.00 to 7.00 | 6.00 to 7.00 | 161 to 163
COc1ccncc1Nc1nc(N2CCOCC2)nc(-n2c(C(F)F)nc3c(OC)cccc32)n1 [Example 27, 4-[2-(difluoromethyl)-4-methoxy-1H-benzimidazol-1-yl]-N-(4-methoxy-3-pyridinyl)-6-(4-morpholinyl)-1,3,5-triazin-2-amine] | > 7.00 | 6.00 to 7.00 | > 7.00 | 6.00 to 7.00 | > 7.00 | 239 to 241

Source: patent publication US8486939B2, “Pyrimidinyl and 1,3,5-triazinyl benzimidazoles and their use in cancer therapy” (Pathway Therapeutics Inc., priority 2009, dated 2013)
